# According to patent publication US8263606B2 (Xenon Pharmaceuticals Inc., priority 2008, dated 2012):
# Assays:
# [1] = tested on: sodium channel; assay: Guanidine influx assay (14C-guanidine radiotracer flux, in vitro); format: cell-based, human or rat; details: guanidine influx assay using a known cell line that expresses a sodium channel; activity level class
# Outline: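 Human or rat sodium channels stably expressed in endogenous or recombinant cells, plated ~100,000 cells/well for 20-24 h at 37 °C. Cells were treated with test agent in low-sodium choline HEPES saline plus aconitine and 14C-guanidine at ambient temperature, washed, and counted by scintillation; IC50 from 4-parameter logistic fit.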
# [2] = biological target: CYP3A4 (Homo sapiens, UniProt P08684); assay: Cytochrome P450 (CYP450) Inhibition Assay, CYP3A4 (Vivid fluorescence, BOMCC substrate); details: human, P450 Baculosomes (recombinant CYP3A4), probe BOMCC (Vivid substrate)
# CYP3A4, sequence (P08684 whole entry): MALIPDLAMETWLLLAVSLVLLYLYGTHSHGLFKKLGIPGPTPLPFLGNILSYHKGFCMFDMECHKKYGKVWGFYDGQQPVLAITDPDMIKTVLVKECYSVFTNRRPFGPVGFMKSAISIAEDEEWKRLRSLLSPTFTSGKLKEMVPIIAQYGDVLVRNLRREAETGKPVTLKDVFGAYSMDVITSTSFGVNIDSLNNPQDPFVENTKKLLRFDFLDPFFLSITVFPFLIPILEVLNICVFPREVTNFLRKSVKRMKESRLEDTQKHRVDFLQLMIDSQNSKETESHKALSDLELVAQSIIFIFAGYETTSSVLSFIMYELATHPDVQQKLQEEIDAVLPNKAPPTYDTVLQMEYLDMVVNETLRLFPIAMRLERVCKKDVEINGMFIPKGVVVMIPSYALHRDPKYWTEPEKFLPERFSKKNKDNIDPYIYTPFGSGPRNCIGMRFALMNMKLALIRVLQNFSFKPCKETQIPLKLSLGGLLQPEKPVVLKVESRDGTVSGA
melting point [°C],IC50 [1] [nM],inhibition at 10 µM [2] [%],SMILES
69 to 72,1 to 100,> 50,"N#Cc1ccc(CN2C(=O)C3(COc4cc5c(cc43)OCCO5)c3ccccc32)cc1 (stereo not drawn) [Example 4.96, 4-[(2′-oxo-2,3-dihydrospiro[furo[2,3-g][1,4]benzodioxine-8,3′-indol]-1′(2′H)-yl)methyl]benzonitrile]"
209 to 212,1 to 100,< 50,"O=C1N(Cc2ccc(-c3ccno3)cc2)c2ccccc2C12COc1cc3c(cc12)OCCO3 (stereo not drawn) [Example 4.97, 1′-(4-isoxazol-5-ylbenzyl)-2,3-dihydrospiro[furo[2,3-g][1,4]benzodioxine-8,3′-indol]-2′(1′H)-one]"
192 to 194,100 to 1000,< 50,"Cc1noc2cc3c(cc12)C1(CO3)C(=O)N(Cc2ccc(-c3ccno3)cc2)c2ccccc21 (stereo not drawn) [Example 4.99, 1′-(4-isoxazol-5-ylbenzyl)-3-methylspiro[furo[3,2-f][1,2]benzisoxazole-5,3′-indol]-2′(1′H)-one]"
174 to 176,1 to 100,< 50,"O=C1N(Cc2ccc(F)cn2)c2ccccc2C12COc1cc3c(cc12)OCCO3 (stereo not drawn) [Example 4.100, 1-[(5-fluoropyridin-2-yl)methyl]-2,3-dihydrospiro[furo[2,3-g][1,4]benzodioxine-8,3′-indol]-2′(1′H)-one]"
247 to 249,1 to 100,< 50,"O=C1N(Cc2ncccc2F)c2ccccc2C12COc1cc3c(cc12)OCCO3 (stereo not drawn) [Example 4.101, 1-[(3-fluoropyridin-2-yl)methyl]-2,3-dihydrospiro[furo[2,3-g][1,4]benzodioxine-8,3′-indol]-2′(1′H)-one]"
228 to 230,100 to 1000,> 50,"O=C1N(Cc2ccccn2)c2cccc(-c3cnc4ccccc4c3)c2C12COc1cc3c(cc12)OCCO3 (stereo not drawn) [Example 4.102, 1-(pyridin-2-ylmethyl)-4′-quinolin-3-yl-2,3-dihydrospiro[furo[2,3-g][1,4]benzodioxine-8,3′-indol]-2′(1′H)-one]"
220 to 222,1 to 100,< 50,"O=C1N(Cc2ncc(F)cc2F)c2ccccc2C12COc1cc3c(cc12)OCCO3 (stereo not drawn) [Example 4.104, 1-[(3,5-difluoropyridin-2-yl)methyl]-2,3-dihydrospiro[furo[2,3-g][1,4]benzodioxine-8,3′-indol]-2′(1′H)-one]"
151 to 153,1000 to 10000,< 50,"N#Cc1ccc2c(c1)OCC21C(=O)N(Cc2ccccn2)c2ccccc21 (stereo not drawn) [Example 4.105, 2′-oxo-1′-(pyridin-2-ylmethyl)-1′,2′-dihydrospiro[1-benzofuran-3,3′-indole]-6-carbonitrile]"
94 to 96,1 to 100,< 50,"N#Cc1cccc(CN2C(=O)[C@@]3(COc4cc5c(cc43)OCCO5)c3ccccc32)c1 [Example 4.106, 3-{[(8S)-2′-oxo-2,3-dihydrospiro[furo[2,3-g][1,4]benzodioxine-8,3′-indol]-1′(2′H)-yl]methyl}benzonitrile]"
210 to 212,1 to 100,< 50,"O=C1N(Cc2ccc(F)cn2)c2ccccc2[C@]12COc1cc3c(cc12)OCCO3 [Example 4.107, (8S)-1′-[(5-fluoropyridin-2-yl)methyl]-2,3-dihydrospiro[furo[2,3-g][1,4]benzodioxine-8,3′-indol]-2′(1′H)-one]"
125 to 126,1 to 100,< 50,"O=C1N(Cc2ncccc2F)c2ccccc2[C@]12COc1cc3c(cc12)OCCO3 [Example 4.108, (8S)-1′-[(3-fluoropyridin-2-yl)methyl]-2,3-dihydrospiro[furo[2,3-g][1,4]benzodioxine-8,3′-indol]-2′(1′H)-one]"
228 to 231,1 to 100,< 50,"O=C1N(Cc2cc(F)ccn2)c2ccccc2C12COc1cc3c(cc12)OCCO3 (stereo not drawn) [Example 4.110, 1-[(4-fluoropyridin-2-yl)methyl]-2,3-dihydrospiro[furo[2,3-g][1,4]benzodioxine-8,3′-indol]-2′(1′H)-one]"
207 to 208,1 to 100,< 50,"O=C1N(Cc2ccccc2C(F)(F)F)c2ccccc2C12COc1cc3c(cc12)OCCO3 (stereo not drawn) [Example 4.113, 1′-[2-(trifluoromethyl)benzyl]-2,3-dihydrospiro[furo[2,3-g][1,4]benzodioxine-8,3′-indol]-2′(1′H)-one]"
137 to 138,100 to 1000,< 50,"O=C1N(Cc2ccccc2C(F)(F)F)c2ccccc2[C@@]12COc1cc3c(cc12)OCCO3 [Example 4.114, (8R)-1′-[2-(trifluoromethyl)benzyl]-2,3-dihydrospiro[furo[2,3-g][1,4]benzodioxine-8,3′-indol]-2′(1′H)-one]"
137 to 138,1 to 100,< 50,"O=C1N(Cc2ccccc2C(F)(F)F)c2ccccc2[C@]12COc1cc3c(cc12)OCCO3 [Example 4.116, (8S)-1′-[2-(trifluoromethyl)benzyl]-2,3-dihydrospiro[furo[2,3-g][1,4]benzodioxine-8,3′-indol]-2′(1′H)-one]"
189 to 191,1 to 100,> 50,"O=C1N(Cc2ccc3nsnc3c2)c2ccccc2C12COc1cc3c(cc12)OCCO3 (stereo not drawn) [Example 4.118, 1′-(2,1,3-benzothiadiazol-5-ylmethyl)-2,3-dihydrospiro[furo[2,3-g][1,4]benzodioxine-8,3′-indol]-2′(1′H)-one]"
164 to 166,1 to 100,> 50,"O=C1N(Cc2nc3ccccc3s2)c2ccccc2C12COc1cc3c(cc12)OCCO3 (stereo not drawn) [Example 4.119, 1-(1,3-benzothiazol-2-ylmethyl)-2,3-dihydrospiro[furo[2,3-g][1,4]benzodioxine-8,3′-indol]-2′(1′H)-one]"
> 240,1 to 100,> 50,"Cn1c(CN2C(=O)C3(COc4cc5c(cc43)OCCO5)c3ccccc32)nc2ccccc21 (stereo not drawn) [Example 4.120, 1′-[(1-methyl-1H-benzimidazol-2-yl)methyl]-2,3-dihydrospiro[furo[2,3-g][1,4]benzodioxine-8,3′-indol]-2′(1′H)-one]"
60 to 63,1 to 100,> 50,"CC(C)c1nc(CN2C(=O)C3(COc4cc5c(cc43)OCCO5)c3ccccc32)cs1 (stereo not drawn) [Example 4.121, 1′-{[2-(1-methylethyl)-1,3-thiazol-4-yl]methyl}-2,3-dihydrospiro[furo[2,3-g][1,4]benzodioxine-8,3′-indol]-2′(1′H)-one]"
164 to 166,1 to 100,> 50,"O=C1N(Cc2ccc3nonc3c2)c2ccccc2C12COc1cc3c(cc12)OCCO3 (stereo not drawn) [Example 4.122, 1-(2,1,3-benzoxadiazol-5-ylmethyl)-2,3-dihydrospiro[furo[2,3-g][1,4]benzodioxine-8,3′-indol]-2′(1′H)-one]"
180 to 182,1 to 100,< 50,"O=C1N(Cc2ccccn2)c2ccccc2C12COc1ccc3nonc3c12 (stereo not drawn) [Example 4.124, 1′-(pyridin-2-ylmethyl)spiro[furo[3,2-e][2,1,3]benzoxadiazole-8,3′-indol]-2′(1′H)-one]"
230 to 232,1000 to 10000,< 50,"O=C1N(Cc2cccnc2)c2ccccc2C12COc1ccc3nonc3c12 (stereo not drawn) [Example 4.125, 1-(pyridin-3-ylmethyl)spiro[furo[3,2-e][2,1,3]benzoxadiazole-8,3′-indol]-2′(1′H)-one]"
197 to 199,1000 to 10000,> 50,"O=C1N(Cc2ccccn2)c2ccccc2C12COc1c(Cl)cc3c(c12)OCCO3 (stereo not drawn) [Example 4.126, 6-chloro-1′-(pyridin-2-ylmethyl)-2,3-dihydrospiro[furo[3,2-f][1,4]benzodioxine-9,3′-indol]-2′(1′H)-one]"
139 to 141,1000 to 10000,< 50,"O=C1N(C[C@H]2CCCO2)c2ccccc2C12COc1cc3c(cc12)CCCC3 (stereo partly drawn) [Example 4.129, 1-[(2R)-tetrahydrofuran-2-ylmethyl]-5′,6′,7′,8′-tetrahydrospiro[indole-3,3′-naphtho[2,3-b]furan]-2(1′H)-one]"
232 to 233,1000 to 10000,< 50,"O=C1N(Cc2ccccn2)c2ccccc2C12COc1cc3nccnc3cc12 (stereo not drawn) [Example 4.130, 1′-(pyridin-2-ylmethyl)spiro[furo[2,3-g]quinoxaline-8,3′-indol]-2′(1′H)-one]"
203 to 204,100 to 1000,< 50,"COc1ncc(CN2C(=O)C3(COc4cc5c(cc43)CCO5)c3ccccc32)cn1 (stereo not drawn) [Example 5, 1-[(2-methoxypyrimidin-5-yl)methyl]-5,6-dihydrospiro[benzo[1,2-b:5,4-b′]difuran-3,3′-indol]-2′(1′H)-one]"
86 to 87,1000 to 10000,> 50,"CC(C)CCN1C(=O)[C@]2(COc3cc4c(cc32)CCO4)c2ccccc21 [Example 5.2, (3R)-1-(3-methylbutyl)-5,6-dihydrospiro[benzo[1,2-b:5,4-b′]difuran-3,3′-indol]-2′(1′H)-one]"
128 to 129,1000 to 10000,> 50,"CCCCCN1C(=O)[C@]2(COc3cc4c(cc32)CCO4)c2ccccc21 [Example 5.3, (3R)-1′-pentyl-5,6-dihydrospiro[benzo[1,2-b:5,4-b′]difuran-3,3′-indol]-2′(1′H)-one]"
